The source made the active and inactive calls.
system: H9c2; assay: cells; type: functional, cell-based; details: Rattus norvegicus, H9c2, Myocardium;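 note: confirmatory concentration-response retest of ultra-high-throughput screening hits for modulation of myocardial damage; cell death induced by hydrogen peroxide oxidative stress; compound pretreatment for 60 min then peroxide exposure for 2 h; potency is for protecting the cells against peroxide damage rather than for killing them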

Row | Structure (SMILES) | IC50
1 | CC(C)(C)NC(=O)c1cccc(NC(=O)c2ccc(NC(=O)c3ccco3)cc2)c1 | > 79 µM (inactive)
2 | Cc1cnc(C=O)c2cccc([N+](=O)[O-])c12 | > 79 µM (inactive)

target: T1, Short transient receptor potential channel 4 (Mus musculus, UniProt Q9QUQ5); assay: block of DAMGO-driven TRPC4 calcium entry – cell-based, HEK293 TRPC4/mu-opioid, Fluo-4 calcium, dose response (AID 434942); type: functional; details: not given;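 note: potency of inhibitors blocking the TRPC4 calcium response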
T1 sequence (Q9QUQ5 whole entry): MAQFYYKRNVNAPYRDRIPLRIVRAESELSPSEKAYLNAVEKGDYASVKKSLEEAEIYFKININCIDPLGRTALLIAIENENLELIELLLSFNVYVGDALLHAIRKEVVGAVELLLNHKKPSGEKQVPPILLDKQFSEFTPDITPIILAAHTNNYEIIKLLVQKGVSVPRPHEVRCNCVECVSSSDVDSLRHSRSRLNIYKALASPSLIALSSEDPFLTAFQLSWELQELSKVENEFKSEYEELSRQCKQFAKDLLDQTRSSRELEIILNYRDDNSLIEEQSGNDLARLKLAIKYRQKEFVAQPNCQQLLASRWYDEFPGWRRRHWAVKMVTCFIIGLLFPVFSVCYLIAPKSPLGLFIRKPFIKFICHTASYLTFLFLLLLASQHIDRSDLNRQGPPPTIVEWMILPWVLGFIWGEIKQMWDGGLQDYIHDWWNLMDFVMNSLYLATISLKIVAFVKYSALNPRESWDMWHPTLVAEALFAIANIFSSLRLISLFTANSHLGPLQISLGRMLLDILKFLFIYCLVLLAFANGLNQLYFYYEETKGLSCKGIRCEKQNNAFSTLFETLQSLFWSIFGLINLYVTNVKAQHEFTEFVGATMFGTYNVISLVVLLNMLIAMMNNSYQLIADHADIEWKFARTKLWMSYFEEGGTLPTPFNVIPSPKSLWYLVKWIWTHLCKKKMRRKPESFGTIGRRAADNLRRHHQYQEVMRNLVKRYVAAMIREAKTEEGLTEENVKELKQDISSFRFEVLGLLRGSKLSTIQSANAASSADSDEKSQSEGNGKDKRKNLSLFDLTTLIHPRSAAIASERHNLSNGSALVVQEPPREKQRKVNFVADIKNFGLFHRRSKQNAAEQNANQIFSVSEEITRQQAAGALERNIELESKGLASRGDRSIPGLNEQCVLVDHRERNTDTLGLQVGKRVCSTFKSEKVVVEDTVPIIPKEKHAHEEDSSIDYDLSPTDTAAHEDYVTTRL

Row | EC50 | Structure (SMILES)
3 | 1.68 µM (active) | O=C(Nc1ccc(F)cc1)N1CCN2C(=O)c3ccccc3C12c1ccccc1 (centres undefined)
4 | 1.33 µM (active) | COc1cc(OC)c(C2N(C)c3ccccc3N2C)cc1OC
5 | 1.68 µM (active) | COCCn1c(SCc2cccc([N+](=O)[O-])c2)nc2ccccc2c1=O
6 | 1.88 µM (active) | CCCN1CN(Cc2ccco2)c2nc3ccccc3n2C1
7 | 2.99 µM (active) | CC(C)=CCN1CCN(Cc2cccc3nonc23)CC1CCO (centres undefined)

Row | Structure (SMILES) | EC50
8 | O=C(CCN1CCc2ccccc2C(O)(c2ccccc2)C1)c1ccc2c(c1)OCCO2 (centres undefined) | 8.41 µM (active)

system: not listed separately; assay: blockers of HIV-1 envelope-mediated cell-cell fusion – cherry-pick, dose response (AID 652057); type: functional, cell-based; details: not given

Row | Structure (SMILES) | AC50
9 | CCCNC(=O)C[C@@H]1C[C@H]2c3cc(NC(=O)Cc4ccncc4)ccc3O[C@H]2[C@@H](CO)O1 | 55.2 µM (active)

system: not listed separately; assay: loss of viability in HepG2 cells – cell-based, CellTiter-Glo, cherry-picked, cytotoxicity control for Shn3 inhibitor project, dose response (AID 624134); type: functional; details: not given

Row | Structure (SMILES) | AC50
10 | O=C(CCN1CCc2ccccc2C(O)(c2ccccc2)C1)c1ccc2c(c1)OCCO2 (centres undefined) | 63.3 µM (active)

system: not listed separately; assay: reduction of Shn3 3'UTR-driven luciferase in osteoblasts – cell-based, Clone20 osteoblasts, firefly luciferase, cherry-picked, dose response (AID 624132); type: functional; details: not given;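 note: firefly luciferase luminescence from reporter carrying the Shn3 3'UTR in osteoblasts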

Row | Structure (SMILES) | AC50
11 | O=C(CCN1CCc2ccccc2C(O)(c2ccccc2)C1)c1ccc2c(c1)OCCO2 (centres undefined) | 23.1 µM (active)

target: Cytochrome P450 2C9 (Homo sapiens, UniProt P11712); assay: not given; details: not given
Sequence (P11712 whole entry): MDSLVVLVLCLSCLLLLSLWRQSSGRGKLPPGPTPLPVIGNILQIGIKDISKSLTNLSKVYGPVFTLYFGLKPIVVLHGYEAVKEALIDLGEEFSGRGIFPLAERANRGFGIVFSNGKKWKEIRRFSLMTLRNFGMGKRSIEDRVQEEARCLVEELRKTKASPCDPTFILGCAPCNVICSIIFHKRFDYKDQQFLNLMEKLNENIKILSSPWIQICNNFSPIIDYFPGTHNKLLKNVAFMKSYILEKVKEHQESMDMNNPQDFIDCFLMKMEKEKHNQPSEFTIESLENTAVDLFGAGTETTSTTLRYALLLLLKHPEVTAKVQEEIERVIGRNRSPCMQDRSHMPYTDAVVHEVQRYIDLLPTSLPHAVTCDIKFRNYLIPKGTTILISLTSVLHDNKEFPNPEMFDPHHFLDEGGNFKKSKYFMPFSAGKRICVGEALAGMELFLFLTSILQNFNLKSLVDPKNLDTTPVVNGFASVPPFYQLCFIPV

Row | AC50 | Structure (SMILES)
12 | inconclusive | COc1ccc(S(=O)(=O)N2CCc3ccccc3C2)cc1OC
13 | inconclusive | COc1cccc2c1OC[C@@H](CO)[C@H]2N(C)C(=O)Nc1ccc(Cl)cc1Cl

system: not listed separately; assay: cells; type: functional, cell-based; details: not given

Row | Structure (SMILES) | EC50
14 | Cc1ccc2nc(SCC(=O)Nc3ccc(Br)cc3)nc(=O)n2c1 | > 350 µM (not active)
15 | Cc1ccc(Cl)cc1N1CCN(CC(O)COCc2ccco2)CC1 (centres undefined) | > 350 µM (not active)
16 | CCSc1nc(NCCN(C)C)c2c3c(sc2n1)COC(C)(CC)C3 (centres undefined) | > 350 µM (not active)
17 | Cc1ccc(C)c(OCC(=O)N2CCN(Cc3ccc4c(c3)OCO4)CC2)c1 | > 350 µM (not active)
18 | COc1ccc(C(=O)Nc2cccc(-c3ccc4nncn4n3)c2)cc1 | > 350 µM (not active)

system: not listed separately; assay: cells; type: functional, cell-based; details: not given; remark: another data set of the same source

Row | Structure (SMILES) | EC50
19 | Cc1ccc2nc(SCC(=O)Nc3ccc(Br)cc3)nc(=O)n2c1 | > 350 µM (not active)
20 | Cc1ccc(Cl)cc1N1CCN(CC(O)COCc2ccco2)CC1 (centres undefined) | > 350 µM (not active)
21 | CCSc1nc(NCCN(C)C)c2c3c(sc2n1)COC(C)(CC)C3 (centres undefined) | > 350 µM (not active)
22 | Cc1ccc(C)c(OCC(=O)N2CCN(Cc3ccc4c(c3)OCO4)CC2)c1 | > 350 µM (not active)
23 | COc1ccc(C(=O)Nc2cccc(-c3ccc4nncn4n3)c2)cc1 | > 350 µM (not active)

system: not listed separately; assay: non-specific 3'UTR reporter inhibition in Clone20-Shn3RL – cell-based, Renilla luciferase, cherry-picked, counter-screen for Shn3 inhibitor project, dose response (AID 624133); type: functional; details: not given

Row | Structure (SMILES) | AC50
24 | O=C(CCN1CCc2ccccc2C(O)(c2ccccc2)C1)c1ccc2c(c1)OCCO2 (centres undefined) | 11.4 µM (active)
